Experimental data from article PMC10331583, “Control of fibrosis with enhanced safety via asymmetric inhibition of prolyl‐tRNA synthetase 1” (EMBO Molecular Medicine, 2023).
Residue numbers refer to the chain shown, from its start. “And” between values parts separate entries of the source, which are not always exact repeats. Equal entries are not always repeated. “Also recorded” adds a separate entry of the source.

Assays:
[1] = molecular target: T1, PARS1 F1097A/E1123A/R1152L (FA/EA/RL) mutant (Homo sapiens, UniProt P07814, E1123A/F1097A/R1152L); experiment: Microscale thermophoresis (MST), PARS1 mutant; type: binding; settings: for Fraction bound: single replicates
T1 construct: His‐PARS1 (1001–1,512 aa); made in house; host or cells: Escherichia coli
T1 sequence (P07814 1001-1512 F1097A/E1123A/R1152L): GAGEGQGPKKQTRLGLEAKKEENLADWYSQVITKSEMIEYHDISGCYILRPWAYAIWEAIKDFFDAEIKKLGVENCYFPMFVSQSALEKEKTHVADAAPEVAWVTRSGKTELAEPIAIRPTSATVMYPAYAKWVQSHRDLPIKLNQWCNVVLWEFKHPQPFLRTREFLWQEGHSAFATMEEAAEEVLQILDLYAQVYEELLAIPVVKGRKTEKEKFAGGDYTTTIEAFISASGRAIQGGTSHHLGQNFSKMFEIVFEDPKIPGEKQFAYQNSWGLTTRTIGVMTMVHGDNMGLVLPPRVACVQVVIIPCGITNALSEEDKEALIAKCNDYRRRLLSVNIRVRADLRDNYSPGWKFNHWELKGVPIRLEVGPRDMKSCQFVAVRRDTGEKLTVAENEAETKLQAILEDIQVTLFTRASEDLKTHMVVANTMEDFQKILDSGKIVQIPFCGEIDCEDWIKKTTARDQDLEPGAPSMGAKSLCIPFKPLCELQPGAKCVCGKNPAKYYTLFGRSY

[2] = molecular target: T2, PARS1 (Homo sapiens, UniProt P07814); experiment: In vitro prolylation assay; type: biochemical; settings: for mode of PARS1 inhibition: IC50 at different proline and ATP concentrations
T2 construct: His‐PARS1 (1001–1,512 aa); His; made in house; host or cells: Escherichia coli
T2 sequence (P07814 1001-1512 limits assumed): T1 sequence (P07814 1001-1512 F1097A/E1123A/R1152L) with A97F, A123E, L152R
Procedure: The enzyme reaction was initiated by the addition of 100 nM purified His‐PARS1 (1001–1,512 aa). After 5 min, the reaction mixture was quenched on Whatman filter paper presoaked with 5% trichloroacetic acid (TCA). The filter papers were washed three times in 5% TCA for 10 min at 4°C and once in 100% ethanol for 10 min. The filter papers were dried, and radioactivity was quantified using liquid scintillation counter (LSC).
After 1 h, the reaction mixture was quenched on Whatman filter paper presoaked with 5% TCA. The filter papers were washed three times in 5% TCA for 10 min at 4°C and once in 100% ethanol for 10 min. The filter papers were dried, and radioactivity was quantified using LSC.

## O[C@H]1CCCN[C@@H]1CCCn1cnc2c(Cl)c(Cl)ccc21 [DWN12088]
[1]; Dose 30.5176 nM
  Fraction bound, average: -0.2196
  Fraction bound: -0.0531 and -0.3613 and -0.2444
[1]; Dose 61.0352 nM
  Fraction bound, average: -0.1437
  Fraction bound: -0.0707 and -0.1506 and -0.2099
[1]; Dose 122.07 nM
  Fraction bound, average: 0.0563
  Fraction bound: 0.1029 and 0.0530 and 0.0131
[1]; Dose 244.141 nM
  Fraction bound, average: 0.2244
  Fraction bound: 0.3322 and 0.1837 and 0.1572
[1]; Dose 488.281 nM
  Fraction bound, average: -0.0768
  Fraction bound: -0.1204 and -0.1742 and 0.0641
[1]; Dose 976.562 nM
  Fraction bound, average: -0.0355
  Fraction bound: -0.2804 and 0.0014 and 0.1724
[1]; Dose 1953.12 nM
  Fraction bound, average: 0.1140
  Fraction bound: 0.1616 and 0.0279 and 0.1524
[1]; Dose 3906.25 nM
  Fraction bound, average: 0.1368
  Fraction bound: 8.74e-5 and 0.2618 and 0.1487
[1]; Dose 7812.5 nM
  Fraction bound, average: -0.0582
  Fraction bound: -0.2477 and -0.0355 and 0.1087
[1]; Dose 15625 nM
  Fraction bound, average: 0.2874
  Fraction bound: 0.1991 and 0.1856 and 0.4774
[1]; Dose 31250 nM
  Fraction bound, average: 0.2894
  Fraction bound: 0.2431 and 0.4002 and 0.2248
[1]; Dose 62500 nM
  Fraction bound, average: 0.2591
  Fraction bound: 0.5108 and 0.3402 and -0.0738
[1]; Dose 125000 nM
  Fraction bound, average: 0.4857
  Fraction bound: 0.4645 and 0.6139 and 0.3786
[1]; Dose 250000 nM
  Fraction bound, average: 0.6790
  Fraction bound: 0.6147 and 0.6365 and 0.7858
[1]; Dose 500000 nM
  Fraction bound, average: 0.8538
  Fraction bound: 0.9212 and 0.7677 and 0.8725
[1]; Dose 1000000 nM
  Fraction bound, average: 0.8907
  Fraction bound: 0.9649 and 0.9924 and 0.7150
[1]; Kd (Fit Results), His-PARS1 FA/EA/RL, doses of the sheet in nM
  Kd: 114000 nM
[1]; Kd, MT (FA/EA/RL), 5 mM ATP, mean ± SD, unit inferred
  Kd: 114000 ± 57400 nM
[2]; IC50, 1 μM Pro, 5 mM ATP
  IC50: 0.0761 µM
[2]; IC50, 10 μM Pro, 5 mM ATP
  IC50: 0.397 µM
[2]; IC50, 100 μM Pro, 2.5 mM ATP
  IC50: 5.94 µM
[2]; IC50, 100 μM Pro, 5 mM ATP
  IC50: 6.46 µM
[2]; IC50, 100 μM Pro, 10 mM ATP
  IC50: 3 µM
[2]
  mode of PARS1 inhibition: proline‐competitive and ATP‐uncompetitive; also recorded: competitive inhibitor for proline, and a mixed or uncompetitive inhibitor for ATP

## O=C(CC1NCCCC1O)Cn1cnc2cc(Br)c(Cl)cc2c1=O (stereo not drawn) [HF, Halofuginone, reference compound]
[1]; Dose 3.0518 nM
  Fraction bound, average: -0.2588
  Fraction bound: -0.0691 and -0.4485
[1]; Dose 6.1035 nM
  Fraction bound, average: 0.0816
  Fraction bound: -0.1353 and 0.0688 and 0.3113
[1]; Dose 12.207 nM
  Fraction bound, average: -0.0324
  Fraction bound: -0.1134 and -0.0549 and 0.0712
[1]; Dose 24.4141 nM
  Fraction bound, average: 0.1754
  Fraction bound: 0.2387 and 0.0706 and 0.2171
[1]; Dose 48.8281 nM
  Fraction bound, average: 0.0946
  Fraction bound: 0.0297 and 0.0849 and 0.1693
[1]; Dose 97.6563 nM
  Fraction bound, average: -0.0450
  Fraction bound: -0.0271 and 0.1069 and -0.2149
[1]; Dose 195.312 nM
  Fraction bound, average: 0.0503
  Fraction bound: 0.0657 and 0.2487 and -0.1634
[1]; Dose 390.625 nM
  Fraction bound, average: -0.0697
  Fraction bound: 0.2249 and -0.2797 and -0.1544
[1]; Dose 781.25 nM
  Fraction bound, average: 0.0626
  Fraction bound: 0.0905 and 0.1699 and -0.0724
[1]; Dose 1562.5 nM
  Fraction bound, average: 0.4132
  Fraction bound: 0.3970 and 0.3491 and 0.4935
[1]; Dose 3125 nM
  Fraction bound, average: 0.2921
  Fraction bound: 0.2701 and 0.2589 and 0.3472
[1]; Dose 6250 nM
  Fraction bound, average: 0.4932
  Fraction bound: 0.1312 and 0.6482 and 0.7002
[1]; Dose 12500 nM
  Fraction bound, average: 0.6254
  Fraction bound: 0.5193 and 0.6344 and 0.7226
[1]; Dose 25000 nM
  Fraction bound, average: 0.6785
  Fraction bound: 0.6923 and 0.6116 and 0.7317
[1]; Dose 50000 nM
  Fraction bound, average: 0.8304
  Fraction bound: 1.1885 and 0.7220 and 0.5806
[1]; Dose 100000 nM
  Fraction bound, average: 1.0687
  Fraction bound: 0.9757 and 1.0430 and 1.1875
[2]; IC50, 1 μM Pro, 5 mM ATP
  IC50: 0.0245 µM
[2]; IC50, 10 μM Pro, 5 mM ATP
  IC50: 0.0462 µM
[2]; IC50, 100 μM Pro, 2.5 mM ATP
  IC50: 0.137 µM
[2]; IC50, 100 μM Pro, 5 mM ATP
  IC50: 0.103 µM
[2]; IC50, 100 μM Pro, 10 mM ATP
  IC50: 0.101 µM
[2]
  mode of PARS1 inhibition: proline‐competitive and ATP‐uncompetitive
